# Assay results published in US8778941B2, “TRPM8 antagonists and their use in treatments” (AMGEN Inc., priority 2011, dated 2014).
# Molecular target: T1, human TRPM8 (Homo sapiens, UniProt Q7Z2W7)
# T1 construct: expressed in transfected cells; host or cells: Chinese hamster ovary (CHO) cells, T-REx tetracycline-inducible expression system (Invitrogen), co-transfected with pcDNA3.1 jellyfish aequorin
# Assay: Luminescence readout assay for measuring intracellular calcium (aequorin), hTRPM8 antagonism
# Assay type: cell-based
# Conditions: CHO cell line expressing human TRPM8 and aequorin; activation by icilin, L-menthol or cold buffer (table does not say which)
# T1 sequence (Q7Z2W7 whole entry): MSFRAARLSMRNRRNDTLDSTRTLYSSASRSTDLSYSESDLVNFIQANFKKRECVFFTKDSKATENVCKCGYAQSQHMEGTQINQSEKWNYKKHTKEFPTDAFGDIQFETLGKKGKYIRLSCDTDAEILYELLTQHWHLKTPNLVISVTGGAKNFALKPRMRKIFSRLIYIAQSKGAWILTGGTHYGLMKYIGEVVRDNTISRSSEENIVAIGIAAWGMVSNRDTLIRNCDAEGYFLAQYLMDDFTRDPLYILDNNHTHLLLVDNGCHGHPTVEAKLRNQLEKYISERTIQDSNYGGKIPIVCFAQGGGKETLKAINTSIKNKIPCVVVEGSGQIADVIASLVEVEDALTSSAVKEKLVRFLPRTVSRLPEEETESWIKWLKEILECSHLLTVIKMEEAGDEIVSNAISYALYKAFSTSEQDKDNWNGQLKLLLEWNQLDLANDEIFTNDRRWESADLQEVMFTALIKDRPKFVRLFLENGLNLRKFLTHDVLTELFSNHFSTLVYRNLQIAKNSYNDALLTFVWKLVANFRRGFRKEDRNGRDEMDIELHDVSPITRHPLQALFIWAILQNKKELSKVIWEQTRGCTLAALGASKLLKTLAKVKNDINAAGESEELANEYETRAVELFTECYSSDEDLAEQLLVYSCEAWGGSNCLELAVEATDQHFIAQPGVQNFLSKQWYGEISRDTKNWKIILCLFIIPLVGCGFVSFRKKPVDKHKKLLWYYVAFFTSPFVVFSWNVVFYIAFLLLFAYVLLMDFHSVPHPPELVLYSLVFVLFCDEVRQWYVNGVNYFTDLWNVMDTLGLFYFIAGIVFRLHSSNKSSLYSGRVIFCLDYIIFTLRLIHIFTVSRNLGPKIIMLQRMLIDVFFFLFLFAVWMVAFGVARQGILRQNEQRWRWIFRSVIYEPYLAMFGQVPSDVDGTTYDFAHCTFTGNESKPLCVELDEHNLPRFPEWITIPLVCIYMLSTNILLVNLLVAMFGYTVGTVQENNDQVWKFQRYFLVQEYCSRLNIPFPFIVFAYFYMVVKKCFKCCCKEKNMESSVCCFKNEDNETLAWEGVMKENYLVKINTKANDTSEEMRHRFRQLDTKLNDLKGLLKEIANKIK
row,Structure (SMILES),IC50
1,"O=C(Nc1cc(F)cc(F)c1)N[C@@H](c1ccc(C(F)(F)F)cc1)c1ncccc1C(F)(F)F [Example 49, (S)-1-(3,5-difluoro-phenyl)-3-((4-(trifluoro-methyl)-phenyl)(3-(trifluoro-methyl)-pyridin-2-yul)-methyl)urea]",558 nM
2,"O=C(N[C@@H](c1ccc(C(F)(F)F)cc1)c1ncccc1C(F)(F)F)N[C@H]1CCc2ccccc21 [Example 129, 1-((S)-2,3-dihydro-1H-inden-1-yl)-3-((S)-(4-(trifluoro-methyl)-phenyl)(3-(trifluoro-methyl)-pyridin-2-yl)-methyl)urea (2,2,2-trifluoro-acetate)]",2000 nM
3,"O=C(Nc1cccnc1)N[C@@H](c1cnc2cccc(Cl)c2c1)c1ncccc1C(F)(F)F [Example 10, (S)-1-((5-chloroquinolin-3-yl)(3-(trifluoro-methyl)-pyridin-2-yl)-methyl)-3-(pyridin-3-yl)-urea]",172 nM
4,O=C(Nc1cccnc1)N[C@@H](c1ccc2ccccc2c1)c1ncccc1C(F)(F)F [Example 11],101 nM
5,"CC(C)[C@H](C)NC(=O)N[C@@H](c1ccc(C(F)(F)F)cc1)c1ncccc1C(F)(F)F [Example 65, 1-((S)-3-methylbutan-2-yl)-3-((S)-(4-(trifluoro-methyl)-phenyl)(3-(trifluoro-methyl)-pyridin-2-yl)-methyl)urea (2,2,2-trifluoro-acetate)]",141 nM
6,"COc1cccc([C@H](NC(=O)Nc2cccnc2)c2ncccc2C(F)(F)F)c1 [Example 4, (S)-1-((3-methoxy-phenyl)(3-(trifluoro-methyl)-pyridin-2-yl)-methyl)-3-(pyridin-3-yl)-urea]",1230 nM
7,"O=C(Nc1cccnc1)N[C@@H](c1ccc(F)cc1)c1ncccc1C(F)(F)F [Example 19, (S)-((4-fluorophenyl)-(3-(trifluoro-methyl)-pyridin-2-yl)-methyl)-3-(pyridin-3-yl)-urea]",382 nM
8,"COc1ccc(OC)c(CCNC(=O)N[C@@H](c2ccc(C(F)(F)F)cc2)c2ncccc2C(F)(F)F)c1 [Example 110, (S)-1-(2,5-dimethoxy-phenethyl)-3-((4-(trifluoro-methyl)-phenyl)(3-(trifluoro-methyl)-pyridin-2-yl)-methyl)urea (2,2,2-trifluoro-acetate)]",190 nM
9,"COc1cccc(NC(=O)N[C@@H](c2ccc(C(F)(F)F)cc2)c2ncccc2C(F)(F)F)c1 [Example 52, (S)-1-(3-methoxy-phenyl)-3-((4-(trifluoro-methyl)-phenyl)(3-(trifluoro-methyl)-pyridin-2-yl)-methyl)urea (2,2,2-trifluoro-acetate)]",61 nM
10,"CCCCOC(=O)CNC(=O)N[C@@H](c1ccc(C(F)(F)F)cc1)c1ncccc1C(F)(F)F [Example 104, (S)-butyl 2-(3-((4-(trifluoro-methyl)-phenyl)(3-(trifluoro-methyl)-pyridin-2-yl)-methyl)-ureido)acetate (2,2,2-trifluoro-acetate)]",604 nM
11,"O=C(Nc1cccnc1)N[C@@H](c1cnc2c(Cl)cccc2c1)c1ncccc1C(F)(F)F [Example 12, (S)-1-((8-chloroquinolin-3-yl)(3-(trifluoro-methyl)-pyridin-2-yl)-methyl)-3-(pyridin-3-yl)-urea]",88 nM
12,"CS(=O)(=O)c1cccc(NC(=O)N[C@@H](c2ccc(C(F)(F)F)cc2)c2ncccc2C(F)(F)F)c1 [Example 53, (S)-1-(3-(methylsulfonyl)phenyl)-3-((4-(trifluoro-methyl)-phenyl)(3-(trifluoro-methyl)-pyridin-2-yl)-methyl)urea]",50 nM
13,"O=C(Nc1cccnc1)N[C@@H](c1ccc(OC(F)(F)F)cc1)c1ncccc1F [Example 15, (S)-1-((3-fluoropyridin-2-yl)(4-(trifluoro-methoxy)-phenyl)-methyl)-3-(pyridin-3-yl)-urea]",15 nM
14,"O=C(Nc1ccc(C(=O)O)cc1)N[C@@H](c1ccc(OC(F)(F)F)c(F)c1)c1ncccc1F [Example 180, (S)-4-(3-((3-Fluoro-4-(trifluoromethoxy)phenyl)(3-fluoropyridin-2-yl)methyl)ureido)benzoic acid]",3240 nM
15,"O=C(Nc1cccnc1)N[C@@H](c1ccc(Cl)cc1)c1ncccc1C(F)(F)F [Example 26, (S)-1-((4-chlorophenyl)-(3-(trifluoro-methyl)-pyridin-2-yl)-methyl)-3-(pyridin-3-yl)-urea]",248 nM
16,"O=C(NCC1CCCCC1)N[C@@H](c1ccc(C(F)(F)F)cc1)c1ncccc1C(F)(F)F [Example 127, (S)-1-(cyclohexyl-methyl)-3-((4-(trifluoro-methyl)-phenyl)(3-(trifluoro-methyl)-pyridin-2-yl)-methyl)urea (2,2,2-trifluoro-acetate)]",657 nM
17,"O=C(NCCCc1ccccc1)N[C@@H](c1ccc(C(F)(F)F)cc1)c1ncccc1C(F)(F)F [Example 34, (S)-1-(3-phenylpropyl)-3-((4-(trifluoro-methyl)-phenyl)(3-(trifluoro-methyl)-pyridin-2-yl)-methyl)urea (2,2,2-trifluoro-acetate)]",127 nM
18,"COc1cc(NC(=O)N[C@@H](c2ccc(C(F)(F)F)cc2)c2ncccc2C(F)(F)F)cc(OC)c1OC [Example 112, (S)-1-((4-(trifluoro-methyl)-phenyl)(3-(trifluoro-methyl)-pyridin-2-yl)-methyl)-3-(3,4,5-trimethoxy-phenyl)urea (2,2,2-trifluoro-acetate)]",287 nM
19,"CC(C)(C)CC(C)(C)NC(=O)N[C@@H](c1ccc(C(F)(F)F)cc1)c1ncccc1C(F)(F)F [Example 131, (S)-1-((4-(trifluoro-methyl)-phenyl)(3-(trifluoro-methyl)-pyridin-2-yl)-methyl)-3-(2,4,4-trimethylpentan-2-yl)urea (2,2,2-trifluoro-acetate)]",666 nM

# Further lines, results first:
row,IC50,Structure (SMILES)
1,53 nM,"CC(C)(C)NC(=O)N[C@@H](c1ccc(C(F)(F)F)cc1)c1ncccc1C(F)(F)F [Example 45, (S)-1-(tert-butyl)-3-((4-(trifluoro-methyl)-phenyl)(3-(trifluoro-methyl)-pyridin-2-yl)-methyl)urea]"
2,2380 nM,"COc1cc(CNC(=O)N[C@@H](c2ccc(C(F)(F)F)cc2)c2ncccc2C(F)(F)F)cc(OC)c1OC [Example 111, (S)-1-((4-(trifluoro-methyl)-phenyl)(3-(trifluoro-methyl)-pyridin-2-yl)-methyl)-3-(3,4,5-trimethoxy-benzyl)urea (2,2,2-trifluoro-acetate)]"
3,178 nM,"O=C(Nc1cccnc1)NC(c1ccc(F)c(C(F)(F)F)c1)c1ncccc1C(F)(F)F (centres unmarked) [Example 21, 1-((4-fluoro-3-(trifluoro-methyl)-phenyl)(3-(trifluoro-methyl)-pyridin-2-yl)-methyl)-3-(pyridin-3-yl)-urea (2,2,2-trifluoro-acetate)]"
4,777 nM,"Cc1noc(-c2ccccc2)c1NC(=O)N[C@@H](c1ccc(C(F)(F)F)cc1)c1ncccc1C(F)(F)F [Example 69, (S)-1-(3-methyl-5-phenylisoxazol-4-yl)-3-((4-(trifluoro-methyl)-phenyl)(3-(trifluoro-methyl)-pyridin-2-yl)-methyl)urea (2,2,2-trifluoro-acetate)]"
5,330 nM,"CCc1cccc(C)c1NC(=O)N[C@@H](c1ccc(C(F)(F)F)cc1)c1ncccc1C(F)(F)F [Example 89, (S)-1-(2-ethyl-6-methylphenyl)-3-((4-(trifluoro-methyl)-phenyl)(3-(trifluoro-methyl)-pyridin-2-yl)-methyl)urea (2,2,2-trifluoro-acetate)]"
6,640 nM,"O=C(Nc1cnc2ccccc2c1)N[C@@H](c1ccc(C(F)(F)F)cc1)c1ncccc1C(F)(F)F [Example 59, (S)-1-(quinolin-3-yl)-3-((4-(trifluoro-methyl)-phenyl)(3-(trifluoro-methyl)-pyridin-2-yl)-methyl)urea]"
7,3770 nM,"Cc1ccc(F)c(NC(=O)N[C@@H](c2ccc(C(F)(F)F)cc2)c2ncccc2C(F)(F)F)c1 [Example 146, (S)-1-(2-fluoro-5-methylphenyl)-3-((4-(trifluoro-methyl)-phenyl)(3-(trifluoro-methyl)-pyridin-2-yl)-methyl)urea (2,2,2-trifluoro-acetate)]"
8,201 nM,"O=C(Nc1cccnc1)NC(c1ccc(F)c(C(F)(F)F)c1)c1ncccc1F (centres unmarked) [Example 22, 1-((4-fluoro-3-(trifluoro-methyl)-phenyl)(3-fluoropyridin-2-yl)methyl)-3-(pyridin-3-yl)urea (2,2,2-trifluoro-acetate)]"
9,154 nM,"O=C(Nc1cccnc1)N[C@@H](c1ccc(C(F)(F)F)cc1)c1ccccc1Br [Example 115, (S)-1-((2-bromophenyl) (4-(trifluoro-methyl)-phenyl)-methyl)-3-(pyridin-3-yl)-urea 2,2,2-trifluoro-acetate (2,2,2-trifluoro-acetate)]"
10,713 nM,"Cc1cccc(C(C)C)c1NC(=O)N[C@@H](c1ccc(C(F)(F)F)cc1)c1ncccc1C(F)(F)F [Example 92, (S)-1-(2-isopropyl-6-methylphenyl)-3-((4-(trifluoro-methyl)-phenyl)(3-(trifluoro-methyl)-pyridin-2-yl)-methyl)urea (2,2,2-trifluoro-acetate)]"
11,2850 nM,"O=C(Nc1cccnc1)NC(c1ccc(C(F)(F)F)cc1)c1ccncc1Br (centres unmarked) [Example 120, 1-((3-bromopyridin-4-yl)(4-(trifluoro-methyl)-phenyl)-methyl)-3-(pyridin-3-yl)-urea (2,2,2-trifluoro-acetate)]"
12,175 nM,"O=C(Nc1cccnc1)N[C@@H](c1cccc(C(F)(F)F)c1)c1ncccc1C(F)(F)F [Example 9, (S)-1-((3-(trifluoro-methyl)-phenyl)(3-(trifluoro-methyl)-pyridin-2-yl)-methyl)-3-(pyridin-3-yl)-urea]"
13,397 nM,"O=C(NC1CCCOC1)N[C@@H](c1ccc(C(F)(F)F)cc1)c1ncccc1C(F)(F)F (stereo partly drawn) [Example 54, 1-(tetrahydro-2H-pyran-3-yl)-3-((S)-(4-(trifluoro-methyl)-phenyl)(3-(trifluoro-methyl)-pyridin-2-yl)-methyl)urea]"
